Experimental data published in ChEMBL document CHEMBL4004838, “Design and synthesis of novel phenyl -1, 4-beta-carboline-hybrid molecules as potential anticancer agents” (Eur J Med Chem, 2017).

Experiments:
Assay type in all cases: functional
[1] = tested on: K562; assay: Growth inhibition of human K562 cells incubated for 48 hrs by sulforhodamine B assay; details: K562, 48 h
[2] = tested on: MOLT-4; assay: Growth inhibition of human MOLT4 cells incubated for 48 hrs by sulforhodamine B assay; details: MOLT-4, 48 h
[3] = tested on: HOP-92; assay: Growth inhibition of human HOP92 cells incubated for 48 hrs by sulforhodamine B assay; details: HOP-92, 48 h
[4] = tested on: KM12; assay: Growth inhibition of human KM12 cells incubated for 48 hrs by sulforhodamine B assay; details: KM12, 48 h
[5] = tested on: SF-539; assay: Growth inhibition of human SF539 cells incubated for 48 hrs by sulforhodamine B assay; details: SF-539, 48 h
[6] = tested on: SNB-19; assay: Growth inhibition of human SNB19 cells incubated for 48 hrs by sulforhodamine B assay; details: SNB-19, 48 h
[7] = tested on: UACC-62; assay: Growth inhibition of human UACC62 cells incubated for 48 hrs by sulforhodamine B assay; details: UACC-62, 48 h
[8] = tested on: UO-31; assay: Growth inhibition of human UO31 cells incubated for 48 hrs by sulforhodamine B assay; details: UO-31, 48 h
[9] = tested on: A549; assay: Growth inhibition of human A549/ATCC cells assessed as cell growth at 0.01 uM incubated for 48 hrs by sulforhodamine B assay relative to control; details: A549, 48 h, read-out: Activity
[10] = tested on: HCT-116; assay: Growth inhibition of human HCT116 cells assessed as cell growth at 0.01 uM incubated for 48 hrs by sulforhodamine B assay relative to control; details: HCT-116, 48 h, read-out: Activity
[11] = tested on: OVCAR-5; assay: Growth inhibition of human OVCAR5 cells assessed as cell growth at 0.01 uM incubated for 48 hrs by sulforhodamine B assay relative to control; details: OVCAR-5, 48 h, read-out: Activity
[12] = tested on: OVCAR-8; assay: Growth inhibition of human OVCAR8 cells assessed as cell growth at 0.01 uM incubated for 48 hrs by sulforhodamine B assay relative to control; details: OVCAR-8, 48 h, read-out: Activity
[13] = tested on: MDA-MB-231; assay: Growth inhibition of human MDA-MB-231 cells assessed as cell growth at 0.01 uM incubated for 48 hrs by sulforhodamine B assay relative to control; details: MDA-MB-231, 48 h, read-out: Activity
[14] = tested on: Hs-578T; assay: Growth inhibition of human Hs 578T cells assessed as cell growth at 0.01 uM incubated for 48 hrs by sulforhodamine B assay relative to control; details: read-out: Activity
[15] = tested on: MOLT-4; assay: Growth inhibition of human MOLT4 cells assessed as cell growth at 0.1 uM incubated for 48 hrs by sulforhodamine B assay relative to control; details: MOLT-4, 48 h, read-out: Activity
[16] = tested on: A549; assay: Growth inhibition of human A549/ATCC cells assessed as cell growth at 0.1 uM incubated for 48 hrs by sulforhodamine B assay relative to control; details: A549, 48 h, read-out: Activity
[17] = tested on: EKVX; assay: Growth inhibition of human EKVX cells assessed as cell growth at 0.1 uM incubated for 48 hrs by sulforhodamine B assay relative to control; details: read-out: Activity
[18] = tested on: COLO 205; assay: Growth inhibition of human COLO205 cells assessed as cell growth at 0.1 uM incubated for 48 hrs by sulforhodamine B assay relative to control; details: COLO 205, 48 h, read-out: Activity
[19] = tested on: TK-10; assay: Growth inhibition of human TK10 cells assessed as cell growth at 0.1 uM incubated for 48 hrs by sulforhodamine B assay relative to control; details: TK-10, 48 h, read-out: Activity
[20] = tested on: T47D; assay: Growth inhibition of human T47D cells assessed as cell growth at 0.1 uM incubated for 48 hrs by sulforhodamine B assay relative to control; details: read-out: Activity
[21] = tested on: HOP-62; assay: Growth inhibition of human HOP62 cells assessed as cell growth at 1 uM incubated for 48 hrs by sulforhodamine B assay relative to control; details: HOP-62, 48 h, read-out: Activity
[22] = tested on: HCC 2998; assay: Growth inhibition of human HCC2998 cells assessed as cell growth at 1 uM incubated for 48 hrs by sulforhodamine B assay relative to control; details: HCC 2998, 48 h, read-out: Activity
[23] = tested on: RXF 393; assay: Growth inhibition of human RXF393 cells assessed as cell growth at 1 uM incubated for 48 hrs by sulforhodamine B assay relative to control; details: RXF 393, 48 h, read-out: Activity
[24] = tested on: UO-31; assay: Growth inhibition of human UO31 cells assessed as cell growth at 1 uM incubated for 48 hrs by sulforhodamine B assay relative to control; details: UO-31, 48 h, read-out: Activity
[25] = tested on: PC-3; assay: Growth inhibition of human PC3 cells assessed as cell growth at 1 uM incubated for 48 hrs by sulforhodamine B assay relative to control; details: PC-3, 48 h, read-out: Activity
[26] = tested on: RPMI-8226; assay: Growth inhibition of human RPMI8226 cells assessed as cell growth at 100 uM incubated for 48 hrs by sulforhodamine B assay relative to control; details: RPMI-8226, 48 h, read-out: Activity
[27] = tested on: EKVX; assay: Growth inhibition of human EKVX cells assessed as cell growth at 100 uM incubated for 48 hrs by sulforhodamine B assay relative to control; details: read-out: Activity
[28] = tested on: HCT-116; assay: Growth inhibition of human HCT116 cells assessed as cell growth at 100 uM incubated for 48 hrs by sulforhodamine B assay relative to control; details: HCT-116, 48 h, read-out: Activity
[29] = tested on: HT-29; assay: Growth inhibition of human HT-29 cells assessed as cell growth at 100 uM incubated for 48 hrs by sulforhodamine B assay relative to control; details: HT-29, 48 h, read-out: Activity
[30] = tested on: MDA-MB-231; assay: Growth inhibition of human MDA-MB-231 cells assessed as cell growth at 100 uM incubated for 48 hrs by sulforhodamine B assay relative to control; details: MDA-MB-231, 48 h, read-out: Activity
[31] = read-out: LC50 (the source's name)
[32] = read-out: pLC50 (the source's name) (converted)

## c1ccc2[nH]c(-c3ccc(-c4nccc5c4[nH]c4ccccc45)cc3)nc2c1
[1]; read-out: GI50
  GI50: 2330 nM
[1]; [31]
  CC50: 4.24 µM
[1]; read-out: TGI
  TGI: 5.47 µM
[1]; read-out: pGI50 (converted)
  GI50: 2340 nM
[1]; [32]
  CC50: 42.7 µM
[1]; read-out: pTGI (converted)
  TGI: 5.5 µM
[2]; read-out: GI50
  GI50: 2320 nM
[2]; [31]
  CC50: 7.51 µM
[2]; read-out: TGI
  TGI: 6.11 µM
[2]; read-out: pGI50 (converted)
  GI50: 2290 nM
[2]; [32]
  CC50: 75.9 µM
[2]; read-out: pTGI (converted)
  TGI: 6.17 µM
[3]; read-out: GI50
  GI50: 2060 nM
[3]; [31]
  CC50: 2.98 µM
[3]; read-out: TGI
  TGI: 5.79 µM
[3]; read-out: pGI50 (converted)
  GI50: 2040 nM
[3]; [32]
  CC50: 29.5 µM
[3]; read-out: pTGI (converted)
  TGI: 5.75 µM
[4]; read-out: LC50
  LC50: 5.29 µM
[4]; read-out: pGI50 (converted)
  GI50: 3.63 µM
[4]; read-out: pLC50 (converted)
  LC50: 52.5 µM
[4]; read-out: pTGI (converted)
  TGI: 15.8 µM
[5]; read-out: GI50
  GI50: 1890 nM
[5]; [31]
  CC50: 7.17 µM
[5]; read-out: TGI
  TGI: 3.68 µM
[5]; read-out: pGI50 (converted)
  GI50: 1910 nM
[5]; [32]
  CC50: 7.24 µM
[5]; read-out: pTGI (converted)
  TGI: 3.72 µM
[6]; read-out: GI50
  GI50: 4.21 µM
[6]; [31]
  CC50: > 1 µM
[6]; read-out: pGI50 (converted)
  GI50: 4.17 µM
[6]; [32]
  CC50: > 100 µM
[6]; read-out: pTGI (converted)
  TGI: 30.2 µM
[7]; read-out: GI50
  GI50: 1600 nM
[7]; [31]
  CC50: 7.62 µM
[7]; read-out: TGI
  TGI: 3.49 µM
[7]; read-out: pGI50 (converted)
  GI50: 1580 nM
[7]; [32]
  CC50: 7.59 µM
[7]; read-out: pTGI (converted)
  TGI: 3.47 µM
[8]; read-out: GI50
  GI50: 1690 nM
[8]; [31]
  CC50: 6.32 µM
[8]; read-out: TGI
  TGI: 3.27 µM
[8]; read-out: pGI50 (converted)
  GI50: 1700 nM
[8]; [32]
  CC50: 6.31 µM
[8]; read-out: pTGI (converted)
  TGI: 3.24 µM
[9]
  growth at 0.01 µM: 98%
[10]
  growth at 0.01 µM: 92%
[11]
  growth at 0.01 µM: 94%
[12]
  growth at 0.01 µM: 100%
[13]
  growth at 0.01 µM: 90%
[14]
  growth at 0.01 µM: 99%
[15]
  growth at 0.1 µM: 98%
[16]
  growth at 0.1 µM: 98%
[17]
  growth at 0.1 µM: 96%
[18]
  growth at 0.1 µM: 97%
[19]
  growth at 0.1 µM: 94%
[20]
  growth at 0.1 µM: 89%
[21]
  growth at 1 µM: 88%
[22]
  growth at 1 µM: 96%
[23]
  growth at 1 µM: 104%
[24]
  growth at 1 µM: 90%
[25]
  growth at 1 µM: 95%
[26]
  growth at 100 µM: 43%
[27]
  growth at 100 µM: 44%
[28]
  growth at 100 µM: 78%
[29]
  growth at 100 µM: 64%
[30]
  growth at 100 µM: 54%
